# Source: patent US20140350273A1, “PEDIATRIC USES OF CABAZITAXEL” (AVENTIS PHARMA S.A., priority 2012, published 2014)
# Like-named read-outs stand apart in the source and are kept apart here.
# Test system: human Ewing's sarcoma DM101
# Type: in vivo
# Details: for Tumor Volume Data (Day 11) Median / ΔT/ΔC %: day 11; for MTTE / T-C: volume endpoint 2000 mm^3; for tumor volume changes from baseline, Median +/− MAD: nude mice bearing DM101 Ewing's sarcoma
# Description: The resultant solution contains 10 mg/mL of cabazitaxel. Stock solution of cabazitaxel was then diluted in 0.9% sodium chloride.
# This efficacy may be quantified, for example, as changes in tumor volume for each treated (T) and control (C) group, which are calculated for each animal and each day by subtracting the tumor volume on the day of first treatment (staging day) from the tumor volume on the specified observation day. This allows calculating the tumor growth inhibition: ΔT/ΔC=(median delta T/median delta C)×100. Individual tumor volume changes from baseline are thereafter analyzed by a non-parametric two-way ANOVA-TYPE (with factors: group and repeated days) followed by a post-hoc contrasts analysis, with Bonferroni-Holm adjustment for multiplicity, comparing all treated groups to the control group. […] A probability less than 5% (p<0.05) was considered as significant.
# Based on the National Cancer Institute (NCl) standards, a ΔT/ΔC≦40% is the minimal level required to declare activity.
# This efficacy may also be quantified by the number of tumor regressions observed after therapy. Individual mice reporting a tumor volume ≦50% of the Day 0 measurement for two consecutive measurements over a seven day period were considered partial responders (PR). Individual mice lacking palpable tumors (<4×4 mm^2 for two consecutive measurements over a seven day period) were classified as complete responders (CR); a CR that persisted until study completion was considered a tumor-free survivor (TFS).
# Efficacy could also be determined at study completion, using tumor growth delay (T-C) in days, which is calculated using the median time to endpoint (MTTE) value for each treatment (T) group versus control (C). A Log Rank multiple comparison test with Bonferroni-Holm adjustment for multiplicity was applied on individual TTE to compare the treated groups to the control group.
# The animals subjected to the experiment are subcutaneously grafted unilaterally with approximately 30 mg of a tumor fragment from low passage pediatric patient-derived tumor xenografts. The animals are implanted with a human patient-derived pediatric tumor xenografted in immuno-compromised mice (Harlan; nu/nu). Several days post tumor implantation, mice are randomized according to their tumor burden to the different groups of treatments and controls. The agents are dosed intravenously at 5.8, 9.3, 15 or 24.2 mg/kg every 4 days for a total of 3 doses (q4d×3) to mice bearing a tumor burden at start of therapy (day 0) ranged from 125 to 250 mm^3.
# Beginning Day 0, animals were observed daily and weighed twice weekly using a digital scale; data including individual and mean gram weights (Mean We±SD), mean percent weight change versus Day 0 were recorded for each group. Animal deaths were recorded daily and designated as drug-related (D), technical (T), tumor related (B), or unknown (U) based on weight loss and gross observation; single agent or combination groups reporting a mean >20% for a period of 7 days and/or >10% mortality were considered above the maximum tolerated dose (MTD) for that treatment on the evaluated regimen.
# The selected tumor model, DM101, was a low passage patient-derived tumor xenograft derived from an Ewing's sarcoma taken from the bone of a patient.
# The following end points were used: • Toxicity was declared at dosages inducing ≧20% body weight loss or ≧10% drug death; • Antitumor efficacy was determined by calculating the ΔT/ΔC value in percent on day 11 post treatment initiation, according to the above mentioned formula; • Individual tumor volume changes from baseline were analyzed by a non-parametric two-way ANOVA-TYPE (with factors: group and repeated day from 4 to 14) followed by a post-hoc contrasts analysis, with Bonferroni-Holm adjustment for multiplicity, comparing all treated groups to the control group on day 11. […] The volume endpoint for T-C calculations was chosen to be 2000 mm^3.
structure (smiles),measurement,setting,value
"CO[C@H]1C(=O)[C@]2(C)[C@@H](OC)C[C@H]3OC[C@@]3(OC(C)=O)[C@H]2[C@H](OC(=O)c2ccccc2)[C@]2(O)C[C@H](OC(=O)[C@H](O)[C@@H](NC(=O)OC(C)(C)C)c3ccccc3)C(C)=C1C2(C)C [Cabazitaxel, 4α-acetoxy-2α-benzoyloxy-5β,20-epoxy-1β-hydroxy-7β,10β-dimethoxy-9-oxo-11-taxen-13α-yl (2R,3S)-3-tert-butoxycarbonyl-amino-2-hydroxy-3-phenylpropionate]",#CR,5.8 mg/kg i.v./q4d × 3,0/0/0
same,#PR,5.8 mg/kg i.v./q4d × 3,0/0/0
same,#TFS,5.8 mg/kg i.v./q4d × 3,0/0/0
same,Drug Deaths Total,5.8 mg/kg i.v./q4d × 3,0
same,Tumor Volume Data (Day 11) Median,5.8 mg/kg i.v./q4d × 3,204 mm^3
same,ΔT/ΔC %,5.8 mg/kg i.v./q4d × 3,8.9%
same,MTTE,5.8 mg/kg i.v./q4d × 3,34.8 days
same,T-C,5.8 mg/kg i.v./q4d × 3,17.9 days
same,"tumor volume changes from baseline, Median +/− MAD","5.8 mg/kg, DAY 4",0 +/− 0 (n = 9)
same,"tumor volume changes from baseline, Median +/− MAD","5.8 mg/kg, DAY 7",34 +/− 34
same,"tumor volume changes from baseline, Median +/− MAD","5.8 mg/kg, DAY 11",73 +/− 73
same,"tumor volume changes from baseline, Median +/− MAD","5.8 mg/kg, DAY 14",155 +/− 136
same,"tumor volume changes from baseline, Median +/− MAD","5.8 mg/kg, DAY 17",306 +/− 152
same,"tumor volume changes from baseline, Median +/− MAD","5.8 mg/kg, DAY 20",489 +/− 199
same,"tumor volume changes from baseline, Median +/− MAD","5.8 mg/kg, DAY 25",696.5
same,"tumor volume changes from baseline, Median +/− MAD","5.8 mg/kg, DAY 28",1097 +/− 117
same,"tumor volume changes from baseline, Median +/− MAD","5.8 mg/kg, DAY 32",1396
same,#CR,9.3 mg/kg i.v./q4d × 3,1/1/1
same,#PR,9.3 mg/kg i.v./q4d × 3,1/1/1
same,#TFS,9.3 mg/kg i.v./q4d × 3,1/1/1
same,Drug Deaths Total,9.3 mg/kg i.v./q4d × 3,0
same,Weight Nadir %,9.3 mg/kg i.v./q4d × 3,−2%
same,Weight Nadir Day,9.3 mg/kg i.v./q4d × 3,7
same,Tumor Volume Data (Day 11) Median,9.3 mg/kg i.v./q4d × 3,255 mm^3
same,ΔT/ΔC %,9.3 mg/kg i.v./q4d × 3,9.4%
same,MTTE,9.3 mg/kg i.v./q4d × 3,23.9 days
same,T-C,9.3 mg/kg i.v./q4d × 3,7 days
same,"tumor volume changes from baseline, Median +/− MAD","9.3 mg/kg, DAY 4",0 +/− 33
same,"tumor volume changes from baseline, Median +/− MAD","9.3 mg/kg, DAY 7",13 +/− 41
same,"tumor volume changes from baseline, Median +/− MAD","9.3 mg/kg, DAY 11",77 +/− 118
same,"tumor volume changes from baseline, Median +/− MAD","9.3 mg/kg, DAY 14",188 +/− 241
same,"tumor volume changes from baseline, Median +/− MAD","9.3 mg/kg, DAY 17",498 +/− 485
same,"tumor volume changes from baseline, Median +/− MAD","9.3 mg/kg, DAY 20",766 +/− 713
same,"tumor volume changes from baseline, Median +/− MAD","9.3 mg/kg, DAY 25",1095
same,"tumor volume changes from baseline, Median +/− MAD","9.3 mg/kg, DAY 28",182.5 +/− 248
same,"tumor volume changes from baseline, Median +/− MAD","9.3 mg/kg, DAY 32",385 +/− 414
same,#CR,15 mg/kg i.v./q4d × 3,9
same,#PR,15 mg/kg i.v./q4d × 3,9
same,#TFS,15 mg/kg i.v./q4d × 3,7
same,Drug Deaths Total,15 mg/kg i.v./q4d × 3,0
same,Weight Nadir %,15 mg/kg i.v./q4d × 3,−3%
same,Weight Nadir Day,15 mg/kg i.v./q4d × 3,7
same,Tumor Volume Data (Day 11) Median,15 mg/kg i.v./q4d × 3,0 mm^3
same,ΔT/ΔC %,15 mg/kg i.v./q4d × 3,−16%
same,MTTE,15 mg/kg i.v./q4d × 3,>61 days
same,T-C,15 mg/kg i.v./q4d × 3,>44.1 days
same,CR,15 mg/kg q4d×3 IV,9/9
same,TFS,15 mg/kg q4d×3 IV,7/9
same,"tumor volume changes from baseline, Median +/− MAD","15 mg/kg, DAY 4",0 +/− 0 (n = 9)
same,"tumor volume changes from baseline, Median +/− MAD","15 mg/kg, DAY 7",−113 +/− 32
same,"tumor volume changes from baseline, Median +/− MAD","15 mg/kg, DAY 11",−131 +/− 47
same,"tumor volume changes from baseline, Median +/− MAD","15 mg/kg, DAY 14",−131 +/− 47
same,"tumor volume changes from baseline, Median +/− MAD","15 mg/kg, DAY 17",−131 +/− 47
same,"tumor volume changes from baseline, Median +/− MAD","15 mg/kg, DAY 20",−131 +/− 47
same,"tumor volume changes from baseline, Median +/− MAD","15 mg/kg, DAY 25",−131 +/− 47
same,"tumor volume changes from baseline, Median +/− MAD","15 mg/kg, DAY 28",−131 +/− 47
same,"tumor volume changes from baseline, Median +/− MAD","15 mg/kg, DAY 32",−131 +/− 40
same,#CR,24.2 mg/kg i.v./q4d × 3,9
same,#PR,24.2 mg/kg i.v./q4d × 3,9
same,#TFS,24.2 mg/kg i.v./q4d × 3,8
same,Drug Deaths Total,24.2 mg/kg i.v./q4d × 3,0
same,Weight Nadir %,24.2 mg/kg i.v./q4d × 3,−5%
same,Weight Nadir Day,24.2 mg/kg i.v./q4d × 3,11
same,Tumor Volume Data (Day 11) Median,24.2 mg/kg i.v./q4d × 3,0 mm^3
same,ΔT/ΔC %,24.2 mg/kg i.v./q4d × 3,−18.3%
same,MTTE,24.2 mg/kg i.v./q4d × 3,>61 days
same,T-C,24.2 mg/kg i.v./q4d × 3,>44.1 days
same,CR,24.2 mg/kg q4d×3 IV,9/9
same,TFS,24.2 mg/kg q4d×3 IV,8/9
same,"tumor volume changes from baseline, Median +/− MAD","24.2 mg/kg, DAY 4",−19 +/− 19
same,"tumor volume changes from baseline, Median +/− MAD","24.2 mg/kg, DAY 7",−150 +/− 52
same,"tumor volume changes from baseline, Median +/− MAD","24.2 mg/kg, DAY 11",−150 +/− 38
same,"tumor volume changes from baseline, Median +/− MAD","24.2 mg/kg, DAY 14",−150 +/− 38
same,"tumor volume changes from baseline, Median +/− MAD","24.2 mg/kg, DAY 17",−150 +/− 38
same,"tumor volume changes from baseline, Median +/− MAD","24.2 mg/kg, DAY 20",−150 +/− 38
same,"tumor volume changes from baseline, Median +/− MAD","24.2 mg/kg, DAY 25",−150 +/− 38
same,"tumor volume changes from baseline, Median +/− MAD","24.2 mg/kg, DAY 28",−150 +/− 38
same,"tumor volume changes from baseline, Median +/− MAD","24.2 mg/kg, DAY 32",−150 +/− 38
same,antitumor activity compared with docetaxel,"conclusion of example 6, 15 or 24.2 mg/kg, same or equi-toxic dose",significantly more active than docetaxel
